# Key:
# Test in all cases: Histone peptide microarray
# Format in all cases: binding, human
# [1] = system: AIRE (PP)
# Procedure, shortened: (§1)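 Binding read as mean relative signal from 4 replicates; microarray held 293 synthetic histone peptides with single or combinatorial PTMs. Each GST-tagged PHD reader was applied at 0.5 μM using the optimized Petell protocol.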
# [2] = system: BAZ2B
# Procedure, shortened: as §1
# [3] = system: BPTF (PB)
# Procedure, shortened: as §1
# [4] = system: CHD4 (PPCC)
# Procedure, shortened: as §1
# [5] = system: CHD5 (PCC)
# Procedure, shortened: as §1
# [6] = system: CHD5 (PPCC)
# Procedure, shortened: as §1
# [7] = system: DIDO1
# Procedure, shortened: as §1
# [8] = system: DPF2 (PPC2W2)
# Procedure, shortened: as §1
# [9] = system: ING1
# Procedure, shortened: as §1
# [10] = system: ING2
# Procedure, shortened: as §1
# [11] = system: ING3
# Procedure, shortened: as §1
# [12] = system: ING4
# Procedure, shortened: as §1
# [13] = system: ING5
# Procedure, shortened: as §1
# [14] = system: KDM4C (TTP)
# Procedure, shortened: as §1
# [15] = system: KDM5A (1)
# Procedure, shortened: as §1
# [16] = system: KDM5A (3)
# Procedure, shortened: as §1
# [17] = system: KDM5B (1)
# Procedure, shortened: as §1
# [18] = system: KDM5B (3)
# Procedure, shortened: as §1
# [19] = system: KDM7A
# Procedure, shortened: as §1
# [20] = system: MLL5
# Procedure, shortened: as §1
# [21] = system: MORC3 (CW)
# Procedure, shortened: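 Purified PHD finger domains fused to GST are screened against 293 synthetic histone peptides bearing one or several post-translational modifications. The protein is used at 0.5 μM, and the signal from four replicate arrays is averaged, with standard deviation given.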
# [22] = system: PHF13
# Procedure, shortened: as §1
# [23] = system: PHF21A
# Procedure, shortened: as §1
# [24] = system: PHF23
# Procedure, shortened: as §1
# [25] = system: PHF2
# Procedure, shortened: as §1
# [26] = system: PHF8
# Procedure, shortened: as §1
# [27] = system: PHRF1 (RP)
# Procedure, shortened: as §1
# [28] = system: RAG2
# Procedure, shortened: as §1
# [29] = system: SP140L
# Procedure, shortened: as §1
# [30] = system: TAF3
# Procedure, shortened: as §1
# [31] = system: TRIM66 (PB)
# Procedure, shortened: as §1
# [32] = histone peptide array, GST-tagged reader, arrays performed twice, n of 4
# [33] = histone peptide array, GST-tagged reader, PB = PHD + Bromodomain, arrays performed twice, n of 4
# [34] = histone peptide array, GST-tagged reader, PPCC = Dual PHD + Dual Chromodomain, arrays performed twice, n of 4
# [35] = sheet "Array Heatmap", GST-tagged reader, histone peptide array, total n = 4
substance,measurement,setting,value
H3.3 75-94: H3.3 120-135,"Array Heatmap signal, AIRE (PP)","[1]; sheet ""Array Heatmap"", GST-tagged AIRE (PP), arrays performed twice, total replicate number n = 4",0.502
same,"Array Heatmap signal, BAZ2B","[2]; sheet ""Array Heatmap"", GST-tagged BAZ2B, arrays performed twice, total replicate number n = 4",0.4527
same,"Array Heatmap signal, BPTF (PB)","[3]; sheet ""Array Heatmap"", GST-tagged BPTF (PB), arrays performed twice, total replicate number n = 4",0.3448
same,"Array Heatmap signal, CHD4 (PPCC)","[4]; sheet ""Array Heatmap"", GST-tagged CHD4 (PPCC), arrays performed twice, total replicate number n = 4",0.5423
same,"Array Heatmap signal, CHD5 (PCC)","[5]; sheet ""Array Heatmap"", GST-tagged CHD5 (PCC), arrays performed twice, total replicate number n = 4",0.7355
same,"Array Heatmap signal, CHD5 (PPCC)","[6]; sheet ""Array Heatmap"", GST-tagged CHD5 (PPCC), arrays performed twice, total replicate number n = 4",0.563
same,"Array Heatmap signal, DIDO1","[7]; sheet ""Array Heatmap"", GST-tagged DIDO1, arrays performed twice, total replicate number n = 4",0.6416
same,"Array Heatmap signal, DPF2 (PPC2W2)","[8]; sheet ""Array Heatmap"", GST-tagged DPF2 (PPC2W2), arrays performed twice, total replicate number n = 4",0.6426
same,"Array Heatmap signal, ING1","[9]; sheet ""Array Heatmap"", GST-tagged ING1, arrays performed twice, total replicate number n = 4",0.5031
same,"Array Heatmap signal, ING2","[10]; sheet ""Array Heatmap"", GST-tagged ING2, arrays performed twice, total replicate number n = 4",0.5986
same,"Array Heatmap signal, ING3","[11]; sheet ""Array Heatmap"", GST-tagged ING3, arrays performed twice, total replicate number n = 4",0.473
same,"Array Heatmap signal, ING4","[12]; sheet ""Array Heatmap"", GST-tagged ING4, arrays performed twice, total replicate number n = 4",0.4549
same,"Array Heatmap signal, ING5","[13]; sheet ""Array Heatmap"", GST-tagged ING5, arrays performed twice, total replicate number n = 4",0.3621
same,"Array Heatmap signal, KDM4C (TTP)","[14]; sheet ""Array Heatmap"", GST-tagged KDM4C (TTP), arrays performed twice, total replicate number n = 4",0.5145
same,"Array Heatmap signal, KDM5A (1)","[15]; sheet ""Array Heatmap"", GST-tagged KDM5A (1), arrays performed twice, total replicate number n = 4",0.468
same,"Array Heatmap signal, KDM5A (3)","[16]; sheet ""Array Heatmap"", GST-tagged KDM5A (3), arrays performed twice, total replicate number n = 4",0.454
same,"Array Heatmap signal, KDM5B (1)","[17]; sheet ""Array Heatmap"", GST-tagged KDM5B (1), arrays performed twice, total replicate number n = 4",0.6676
same,"Array Heatmap signal, KDM5B (3)","[18]; sheet ""Array Heatmap"", GST-tagged KDM5B (3), arrays performed twice, total replicate number n = 4",0.4774
same,"Array Heatmap signal, KDM7A","[19]; sheet ""Array Heatmap"", GST-tagged KDM7A, arrays performed twice, total replicate number n = 4",0.3506
same,"Array Heatmap signal, MLL5","[20]; sheet ""Array Heatmap"", GST-tagged MLL5, arrays performed twice, total replicate number n = 4",0.5079
same,"Array Heatmap signal, MORC3 (CW)","[21]; sheet ""Array Heatmap"", GST-tagged MORC3 (CW), arrays performed twice, total replicate number n = 4",0.3704
same,"Array Heatmap signal, PHF13","[22]; sheet ""Array Heatmap"", GST-tagged PHF13, arrays performed twice, total replicate number n = 4",0.6071
same,"Array Heatmap signal, PHF21A","[23]; sheet ""Array Heatmap"", GST-tagged PHF21A, arrays performed twice, total replicate number n = 4",0.449
same,"Array Heatmap signal, PHF23","[24]; sheet ""Array Heatmap"", GST-tagged PHF23, arrays performed twice, total replicate number n = 4",0.5259
same,"Array Heatmap signal, PHF2","[25]; sheet ""Array Heatmap"", GST-tagged PHF2, arrays performed twice, total replicate number n = 4",0.46
same,"Array Heatmap signal, PHF8","[26]; sheet ""Array Heatmap"", GST-tagged PHF8, arrays performed twice, total replicate number n = 4",0.3469
same,"Array Heatmap signal, PHRF1 (RP)","[27]; sheet ""Array Heatmap"", GST-tagged PHRF1 (RP), arrays performed twice, total replicate number n = 4",0.4716
same,"Array Heatmap signal, RAG2","[28]; sheet ""Array Heatmap"", GST-tagged RAG2, arrays performed twice, total replicate number n = 4",0.2477
same,"Array Heatmap signal, SP140L","[29]; sheet ""Array Heatmap"", GST-tagged SP140L, arrays performed twice, total replicate number n = 4",0.3784
same,"Array Heatmap signal, TAF3","[30]; sheet ""Array Heatmap"", GST-tagged TAF3, arrays performed twice, total replicate number n = 4",0.2603
same,"Array Heatmap signal, TRIM66 (PB)","[31]; sheet ""Array Heatmap"", GST-tagged TRIM66 (PB), arrays performed twice, total replicate number n = 4",0.5407
"H3.3 (27-45): H3.3 27-45 (KSAPSTGGVKKPHRYRPGT; UniProt P84243 28-46, looked up, fragment)","Array Heatmap signal, AIRE (PP)",[1]; [32],0.4994
same,"Array Heatmap signal, BAZ2B",[2]; [32],0.4692
same,"Array Heatmap signal, BPTF (PB)",[3]; [33],0.34
same,"Array Heatmap signal, CHD4 (PPCC)",[4]; [34],0.5867
same,"Array Heatmap signal, CHD5 (PCC)","[5]; histone peptide array, GST-tagged reader, PCC = PHD + Dual Chromodomain, arrays performed twice, n of 4",0.7947
same,"Array Heatmap signal, CHD5 (PPCC)",[6]; [34],0.5478
same,"Array Heatmap signal, DIDO1",[7]; [32],0.7133
same,"Array Heatmap signal, DPF2 (PPC2W2)","[8]; histone peptide array, GST-tagged reader, PPC2W2 = Dual PHD + C2W2-type Zn-finger, arrays performed twice, n of 4",0.6084
same,"Array Heatmap signal, ING1",[9]; [32],0.4846
same,"Array Heatmap signal, ING2",[10]; [32],0.588
same,"Array Heatmap signal, ING3",[11]; [32],0.4546
same,"Array Heatmap signal, ING4",[12]; [32],0.4566
same,"Array Heatmap signal, ING5",[13]; [32],0.3478
same,"Array Heatmap signal, KDM4C (TTP)","[14]; histone peptide array, GST-tagged reader, TTP = Tandem Tudor domain + PHD, arrays performed twice, n of 4",0.5199
same,"Array Heatmap signal, KDM5A (1)",[15]; [32],0.4676
same,"Array Heatmap signal, KDM5A (3)",[16]; [32],0.405
same,"Array Heatmap signal, KDM5B (1)",[17]; [32],0.6276
same,"Array Heatmap signal, KDM5B (3)",[18]; [32],0.4762
same,"Array Heatmap signal, KDM7A",[19]; [32],0.4316
same,"Array Heatmap signal, MLL5",[20]; [32],0.5451
same,"Array Heatmap signal, MORC3 (CW)","[21]; histone peptide array, GST-tagged reader, CW = CW-type Zn-finger, arrays performed twice, n of 4",0.3459
same,"Array Heatmap signal, PHF13",[22]; [32],0.5824
same,"Array Heatmap signal, PHF21A",[23]; [32],0.4761
same,"Array Heatmap signal, PHF23",[24]; [32],0.5188
same,"Array Heatmap signal, PHF2",[25]; [32],0.4329
same,"Array Heatmap signal, PHF8",[26]; [32],0.3699
same,"Array Heatmap signal, PHRF1 (RP)",[27]; [32],0.4032
same,"Array Heatmap signal, RAG2",[28]; [32],0.2569
same,"Array Heatmap signal, SP140L",[29]; [32],0.3705
same,"Array Heatmap signal, TAF3",[30]; [32],0.2584
same,"Array Heatmap signal, TRIM66 (PB)",[31]; [33],0.5678
H3.3K18ac + K23ac + K27ac + S28p: H3.3 15-34,"Array Heatmap signal, AIRE (PP)",[1]; [35],0.4033
same,"Array Heatmap signal, BAZ2B",[2]; [35],0.4455
same,"Array Heatmap signal, BPTF (PB)",[3]; [35],0.3427
same,"Array Heatmap signal, CHD4 (PPCC)",[4]; [35],0.5345
same,"Array Heatmap signal, CHD5 (PCC)",[5]; [35],0.7419
same,"Array Heatmap signal, CHD5 (PPCC)",[6]; [35],0.5304
same,"Array Heatmap signal, DIDO1",[7]; [35],0.747
same,"Array Heatmap signal, DPF2 (PPC2W2)",[8]; [35],0.6362
same,"Array Heatmap signal, ING1",[9]; [35],0.5496
same,"Array Heatmap signal, ING2",[10]; [35],0.6018
same,"Array Heatmap signal, ING3",[11]; [35],0.4727
same,"Array Heatmap signal, ING4",[12]; [35],0.4374
same,"Array Heatmap signal, ING5",[13]; [35],0.3405
same,"Array Heatmap signal, KDM4C (TTP)",[14]; [35],0.4483
same,"Array Heatmap signal, KDM5A (1)",[15]; [35],0.4461
same,"Array Heatmap signal, KDM5A (3)",[16]; [35],0.436
same,"Array Heatmap signal, KDM5B (1)",[17]; [35],0.64
same,"Array Heatmap signal, KDM5B (3)",[18]; [35],0.4567
same,"Array Heatmap signal, KDM7A",[19]; [35],0.3117
same,"Array Heatmap signal, MLL5",[20]; [35],0.5576
same,"Array Heatmap signal, MORC3 (CW)",[21]; [35],0.3503
same,"Array Heatmap signal, PHF13",[22]; [35],0.5819
same,"Array Heatmap signal, PHF21A",[23]; [35],0.4374
same,"Array Heatmap signal, PHF23",[24]; [35],0.5591
same,"Array Heatmap signal, PHF2",[25]; [35],0.5396
same,"Array Heatmap signal, PHF8",[26]; [35],0.3574
same,"Array Heatmap signal, PHRF1 (RP)",[27]; [35],0.4303
same,"Array Heatmap signal, RAG2",[28]; [35],0.2492
same,"Array Heatmap signal, SP140L",[29]; [35],0.326
same,"Array Heatmap signal, TAF3",[30]; [35],0.2571
same,"Array Heatmap signal, TRIM66 (PB)",[31]; [35],0.5994

# — publication PMC6979384, “Characterization of the plant homeodomain (PHD) reader family for their histone tail interactions” (Epigenetics & Chromatin, 2020)
